Laboratory results: US20160030406A1, “CORRECTORS ACTING THROUGH MSD1 OF CFTR PROTEIN” (VERTEX PHARMACEUTICALS INCORPORATED, priority 2013, published 2016)

Tests used:
[1] = target: T1, CFTR fragments (CFTR^370, CFTR^373, CFTR^375, CFTR^380, CFTR^430, CFTR^530, CFTR^653) (Homo sapiens, UniProt P13569); assay: CFTR fragment steady-state accumulation by immunoblot in HEK293 cells; assay type: cell-based; details: HEK293, 4 hours bortezomib
T1 construct: expressed in transfected cells; host or cells: HEK293, transient transfection
Description: Steady-state levels of CFTR and its mutants are determined by western blot analysis. HEK293 cells are transiently transfected with the indicated plasmids (Grove, et al., 2011, Mol Biol Cell, 22: 301-14). The transfected cells are allowed to recover for approximately 18 hrs before addition of DMEM and then supplemented with lumacaftor or DMSO (control). The cells are incubated with the correctors for 24 hrs before isolating the cells for western blot analysis. The harvested cells are diluted with 2×SDS sample buffer (100 mM Tris-HCl (pH 6.8)/4% SDS/0.05% Bromophenol Blue/20% glycerol), sonicated, and heated at 37° C. prior to resolving the proteins on SDS-PAGE gels. The proteins are transferred to nitrocellulose membranes and the membranes are probed with the designated antibodies. β-tubulin is used to indicate loading controls.
To localize the region in CFTR on which lumacaftor acts to correct ΔF508-CFTR misfolding, immunoblot and pulse-chase studies are used to monitor the impact of the drug on the accumulation of a set of CFTR and ΔF508-CFTR fragments that expose surfaces present on CFTR folding intermediates.
A set of CFTR fragments with domain boundaries that permitted them to accumulate in unstable or stable states are expressed in HEK293 cells, and the effect of 5 μM lumacaftor on the accumulation of different fragments is determined. As a point of reference, the impact of the proteasome inhibitor bortezomib on CFTR fragment accumulation is also measured.
Cells are treated for 4 hours with bortezomib or 18 hours at 37° C. with lumacaftor. The amount of CFTR fragment accumulation is determined by immunoblot.
To evaluate whether the 362-380 helix is critical for MSD1 folding, the accumulation and sensitivity to lumacaftor of CFTR^373, CFTR^375, and CFTR^380 is analyzed. CFTR^373 accumulation is similar to that of CFTR^370 and insensitive to lumacaftor. CFTR^375 accumulation is similar to CFTR^370, but its amounts are increased around 6-fold by lumacaftor. […] Maximal accumulation of CFTR^380 occurs at 5 μM lumacaftor.

ΔF508-CFTR = target: T2, ΔF508-CFTR (Homo sapiens, UniProt P13569, DEL508-508); details: bronchial epithelial cells from CF subjects; cited from earlier work
T2 construct: endogenous in cells; host or cells: primary human bronchial epithelial cells from CF subjects homozygous for ΔF508
T2 sequence (P13569 with tags, fused parts or gaps DEL508-508): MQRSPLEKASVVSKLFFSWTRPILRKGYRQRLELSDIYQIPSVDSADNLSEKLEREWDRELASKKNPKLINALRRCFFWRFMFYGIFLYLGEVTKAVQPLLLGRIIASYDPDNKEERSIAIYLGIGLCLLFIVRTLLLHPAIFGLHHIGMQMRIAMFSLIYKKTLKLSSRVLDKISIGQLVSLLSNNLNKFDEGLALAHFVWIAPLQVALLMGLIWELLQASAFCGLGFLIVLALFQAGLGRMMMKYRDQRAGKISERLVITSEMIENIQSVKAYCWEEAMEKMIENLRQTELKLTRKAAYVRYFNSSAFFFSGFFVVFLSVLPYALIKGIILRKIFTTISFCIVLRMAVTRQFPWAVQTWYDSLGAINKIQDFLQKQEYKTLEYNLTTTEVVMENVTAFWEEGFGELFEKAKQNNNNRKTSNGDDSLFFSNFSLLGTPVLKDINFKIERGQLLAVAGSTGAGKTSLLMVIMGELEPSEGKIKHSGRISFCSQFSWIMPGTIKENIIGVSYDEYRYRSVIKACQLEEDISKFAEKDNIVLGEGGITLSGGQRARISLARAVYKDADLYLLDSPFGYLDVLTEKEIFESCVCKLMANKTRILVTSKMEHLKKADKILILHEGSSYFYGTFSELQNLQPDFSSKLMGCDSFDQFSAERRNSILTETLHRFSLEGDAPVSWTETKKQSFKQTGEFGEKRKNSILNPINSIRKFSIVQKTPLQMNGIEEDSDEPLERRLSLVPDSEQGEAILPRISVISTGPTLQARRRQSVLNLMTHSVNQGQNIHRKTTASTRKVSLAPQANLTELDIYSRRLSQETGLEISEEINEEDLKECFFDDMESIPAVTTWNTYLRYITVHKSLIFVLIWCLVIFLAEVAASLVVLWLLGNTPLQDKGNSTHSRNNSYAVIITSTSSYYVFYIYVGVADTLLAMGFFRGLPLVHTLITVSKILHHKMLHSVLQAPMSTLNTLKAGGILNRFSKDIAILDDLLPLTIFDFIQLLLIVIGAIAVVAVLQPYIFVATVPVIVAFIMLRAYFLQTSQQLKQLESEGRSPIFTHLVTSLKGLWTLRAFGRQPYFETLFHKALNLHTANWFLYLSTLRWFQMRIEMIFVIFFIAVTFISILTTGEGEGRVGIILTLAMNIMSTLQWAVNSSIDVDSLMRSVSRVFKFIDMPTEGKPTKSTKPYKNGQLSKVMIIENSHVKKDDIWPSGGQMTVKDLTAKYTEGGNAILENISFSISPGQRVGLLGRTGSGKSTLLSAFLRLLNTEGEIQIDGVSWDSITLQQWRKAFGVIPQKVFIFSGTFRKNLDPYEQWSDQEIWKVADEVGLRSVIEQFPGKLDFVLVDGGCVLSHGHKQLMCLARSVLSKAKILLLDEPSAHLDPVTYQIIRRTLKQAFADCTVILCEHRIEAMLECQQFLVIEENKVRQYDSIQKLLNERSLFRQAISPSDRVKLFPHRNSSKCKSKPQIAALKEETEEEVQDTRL

Row | Compound | accumulation of CFTR^430, sensitivity to proteasome inhibition [1] | accumulation of CFTR^653, sensitivity to proteasome inhibition [1] | increase in accumulation of CFTR^370 [1] [fold] | increase in accumulation of CFTR^530 [1] [fold] | ΔF508-CFTR function (ΔF508-CFTR)
1 | CC(C)C[C@H](NC(=O)[C@H](Cc1ccccc1)NC(=O)c1cnccn1)B(O)O [bortezomib] | relatively insensitive | relatively insensitive | 10 | 10 | –
2 | COc1ccc(Cl)cc1Nc1nc(-c2sc(NC(=O)c3ccccc3)nc2C)cs1 [Corr-4a] | – | – | – | – | partially restored
